≈ marks a conversion by molar mass, not a printed value.
Key:
Type in all cases: cell-based
Aspergillus flavus [1] = experiment: MIC, YAG medium; details: 24 h at 35° C, MIC banded into grades; for MIC: Aspergillus flavus, 24 h, read-out: MIC grade, A. flavus
Outline: (§1)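 DMSO stocks diluted in water as doubling series; spore suspension in YAG (glucose, NH4Cl, yeast extract) added to give 1−2×10^4 cfu/mL. 35° C, 24 h. Growth by OD485; MIC at >70% inhibition, mg/L.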

[2] = tested on: Aspergillus fumigatus AF210; experiment: MIC, YAG medium; details: 24 h at 35° C, MIC banded into grades; for MIC: Aspergillus fumigatus, read-out: MIC grade, A. fumigatus 210
Outline: as §1

[3] = tested on: Aspergillus fumigatus AF293; experiment: MIC, YAG medium; details: 24 h at 35° C, MIC banded into grades; for MIC: Aspergillus fumigatus, read-out: MIC grade, A. fumigatus
Outline: as §1

Aspergillus niger [4] = experiment: MIC, YAG medium; details: 24 h at 35° C, MIC banded into grades; for MIC: Aspergillus niger, read-out: MIC grade, A. niger
Outline: as §1

Aspergillus terreus AT49 [5] = experiment: MIC, YAG medium; details: 24 h at 35° C, MIC banded into grades; for MIC: Aspergillus terreus, read-out: MIC grade, A. terreus 49
Outline: as §1

Aspergillus terreus AT4 [6] = experiment: MIC, YAG medium; details: 24 h at 35° C, MIC banded into grades; for MIC: Aspergillus terreus, read-out: MIC grade, A. terreus
Outline: as §1

Aspergillus flavus [7] = experiment: MIC, RPMI medium; details: MIC banded into grades; for MIC: Aspergillus flavus, read-out: MIC grade, A. flavus
Outline: (§2)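 OD485-based endpoint after 24-48 h/35° C; MIC = lowest concentration, >80% inhibition relative to drug-free. RPMI/2% glucose/0.135 M MOPS pH 7.0; 1−2×10^4 cfu/mL; range 50-0.05 mg/L.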

[8] = tested on: Aspergillus fumigatus AF210; experiment: MIC, RPMI medium; details: for MIC: Aspergillus fumigatus, AF210, MIC banded into grades, read-out: MIC grade, A. fumigatus 210
Outline: as §2

[9] = tested on: Aspergillus fumigatus AF293; experiment: MIC, RPMI medium; details: for MIC: Aspergillus fumigatus, AF293, MIC banded into grades, read-out: MIC grade, A. fumigatus
Outline: as §2

Aspergillus niger [10] = experiment: MIC, RPMI medium; details: MIC banded into grades; for MIC: Aspergillus niger, read-out: MIC grade, A. niger
Outline: as §2

Aspergillus terreus AT49 [11] = experiment: MIC, RPMI medium; details: for MIC: Aspergillus terreus, AT49, MIC banded into grades, read-out: MIC grade, A. terreus 49
Outline: as §2

Aspergillus terreus AT4 [12] = experiment: MIC, RPMI medium; details: for MIC: Aspergillus terreus, AT4, MIC banded into grades, read-out: MIC grade, A. terreus
Outline: as §2

SMILES	MIC (Aspergillus flavus [1]) [µg/mL]	MIC [2] [µg/mL]	MIC [3] [µg/mL]	MIC (Aspergillus niger [4]) [µg/mL]	MIC (Aspergillus terreus AT49 [5]) [µg/mL]	MIC (Aspergillus terreus AT4 [6]) [µg/mL]	MIC (Aspergillus flavus [7]) [µg/mL]	MIC [8] [µg/mL]	MIC [9] [µg/mL]	MIC (Aspergillus niger [10]) [µg/mL]	MIC (Aspergillus terreus AT49 [11]) [µg/mL]	MIC (Aspergillus terreus AT4 [12]) [µg/mL]	also measured
Cc1cc(C)nc(N2CCN(c3ccc(NC(=O)C(=O)c4c(-c5ccccc5)cc(C)n4C)cc3O)CC2)c1 [Example 22, 2-(1,5-Dimethyl-3-phenyl-1H-pyrrol-2-yl)-N-{4-[4-(4,6-dimethyl-pyridin-2-yl)-piperazin-1-yl]-3-hydroxy-phenyl}-2-oxo-acetamide]	< 1	< 1	< 1	< 1	< 1	< 1	< 1	< 1	< 1	< 1	< 1	< 1	–
Cc1cc(C)nc(N2CCN(c3ccc(NC(=O)C(=O)c4c(-c5ccccc5)cc(C)n4CCOC(C)C)cc3)CC2)c1 [Example 97, N-{4-[4-(4,6-Dimethyl-pyridin-2-yl)-piperazin-1-yl]-phenyl}-2-[1-(2-isopropoxy-ethyl)-5-methyl-3-phenyl-1H-pyrrol-2-yl]-2-oxo-acetamide]	1 to 10 (≈ 1.72 to 17.2 µM)	< 1	1 to 10 (≈ 1.72 to 17.2 µM)	1 to 10 (≈ 1.72 to 17.2 µM)	1 to 10 (≈ 1.72 to 17.2 µM)	1 to 10 (≈ 1.72 to 17.2 µM)	1 to 10 (≈ 1.72 to 17.2 µM)	1 to 10 (≈ 1.72 to 17.2 µM)	< 1	1 to 10 (≈ 1.72 to 17.2 µM)	1 to 10 (≈ 1.72 to 17.2 µM)	1 to 10 (≈ 1.72 to 17.2 µM)	–
Cc1cc(-c2ccccc2)c(C(=O)C(=O)Nc2cccc3c(F)cccc23)n1C [Example 127, 2-(1,5-Dimethyl-3-phenyl-1H-pyrrol-2-yl)-N-(5-fluoro-naphthalen-1-yl)-2-oxo-acetamide]	< 1	1 to 10 (≈ 2.59 to 25.9 µM)	> 10	< 1	< 1	< 1	< 1	> 10	> 10	< 1	< 1	< 1	–
Cc1cc(-c2ccccc2)c(C(=O)C(=O)Nc2cccc3c2CCO3)n1C [Example 23, N-(2,3-Dihydro-benzofuran-4-yl)-2-(1,5-dimethyl-3-phenyl-1H-pyrrol-2-yl)-2-oxo-acetamide]	< 1	1 to 10 (≈ 2.77 to 27.7 µM)	< 1	< 1	< 1	< 1	< 1	1 to 10 (≈ 2.77 to 27.7 µM)	1 to 10 (≈ 2.77 to 27.7 µM)	1 to 10 (≈ 2.77 to 27.7 µM)	< 1	< 1	–
Cc1cc(C)nc(N2CCN(c3ccc(NC(=O)C(=O)c4c(-c5ccccc5)cc5n4CCCCC5)cc3)CC2)c1 [41 a]	–	–	–	–	–	–	–	–	–	–	–	–	MIC grade, A. flavus (Aspergillus flavus [1]): 3 (A grade of 3 represents an MIC of less than 1 mg/L); MIC grade, A. fumigatus 210 [2]: 3 (A grade of 3 represents an MIC of less than 1 mg/L); MIC grade, A. fumigatus [3]: 3 (A grade of 3 represents an MIC of less than 1 mg/L); MIC grade, A. niger (Aspergillus niger [4]): 3 (A grade of 3 represents an MIC of less than 1 mg/L); MIC grade, A. terreus 49 (Aspergillus terreus AT49 [5]): 3 (A grade of 3 represents an MIC of less than 1 mg/L); MIC grade, A. terreus (Aspergillus terreus AT4 [6]): 3 (A grade of 3 represents an MIC of less than 1 mg/L); MIC grade, A. flavus (Aspergillus flavus [7]): 1 (a grade of 1 represents an MIC of greater than 10 mg/L); MIC grade, A. fumigatus 210 ([8]; MIC banded into grades): 1 (a grade of 1 represents an MIC of greater than 10 mg/L); MIC grade, A. fumigatus ([9]; MIC banded into grades): 2 (A grade of 2 represents an MIC of from 1 to 10 mg/L); MIC grade, A. niger (Aspergillus niger [10]): 1 (a grade of 1 represents an MIC of greater than 10 mg/L); MIC grade, A. terreus 49 (Aspergillus terreus AT49 [11]; MIC banded into grades): 3 (A grade of 3 represents an MIC of less than 1 mg/L); MIC grade, A. terreus (Aspergillus terreus AT4 [12]; MIC banded into grades): 2 (A grade of 2 represents an MIC of from 1 to 10 mg/L)
